Laboratory results as given in US9695155B2, “Herbicidal substituted pyrimidinyloxy benzene compounds” (E. I. DU PONT DE NEMOURS AND COMPANY, priority 2013, dated 2017).

Key:
ragweed [1] = assay: Test E preemergence; format: in vivo, Ambrosia elatior; conditions: for Ragweed plant response rating: scale 0 to 100 (0 no effect, 100 complete control); for Plant response rating, Ragweed: scale 0 to 100, 0 no effect, 100 complete control
Excerpt: (§1) Seeds of plant species selected from corn (Zea mays), soybean (Glycine max), velvetleaf (Abutilon theophrasti), lambsquarters (Chenopodium album), wild poinsettia (Euphorbia heterophylla), palmer pigweed (Amaranthus palmeri), waterhemp (common waterhemp, Amaranthus rudis), surinam grass (Brachiaria decumbens), large (Lg) crabgrass (Digitaria sanguinalis), Brazilian crabgrass (Digitaria horizontalis), fall panicum (Panicum dichotomiflorum), giant foxtail (Setaria faberii), green foxtail (Setaria viridis), goosegrass (Eleusine indica), johnsongrass (Sorghum halepense), ragweed (common ragweed, Ambrosia elatior), barnyardgrass (Echinochloa crus-galli), sandbur (southern sandbur, Cenchrus echinatus), arrowleaf sida (Sida rhombifolia), Italian ryegrass (Lolium multiflorum), dayflower (Virginia (VA) dayflower, Commelina virginica), field bindweed (Convolvulus arvensis), morningglory (Ipomoea coccinea), nightshade (eastern black nightshade, Solanum ptycanthum), kochia (Kochia scoparia), yellow nutsedge (Cyperus esculentus), cocklebur (common cocklebur, Xanthium strumarium), smartweed (ladysthumb smartweed, and hairy beggarticks (Bidens pilosa), were planted into a silt loam soil and treated preemergence with test chemicals formulated in a non-phytotoxic solvent mixture which included a surfactant.
(§2) At the same time, plants from these crop and weed species and also horseweed (Canada horseweed, Conyza canadensis), waterhemp_RES1, (ALS & Triazine resistant common waterhemp, Amaranthus rudis), and waterhemp_RES2, (ALS & HPPD resistant common waterhemp, Amaranthus rudis) were planted in pots containing Redi-Earth® planting medium (Scotts Company, 14111 Scottslawn Road, Marysville, Ohio 43041) comprising spaghnum peat moss, vermiculite, wetting agent and starter nutrients were treated with postemergence applications of test chemicals formulated in the same manner. Plants ranged in height from 2 to 18 cm for postemergence treatments (1- to 4-leaf stage). Treated plants and controls were maintained in a greenhouse for 14 to 21 days, after which time all species were compared to controls and visually evaluated. Plant response ratings, summarized in Table E, are based on a scale of 0 to 100 where 0 is no effect and 100 is complete control. A dash (-) response means no test result.

fall panicum = assay: Test E preemergence; format: in vivo, Panicum dichotomiflorum; conditions: for Panicum, Fall plant response rating: scale 0 to 100 (0 no effect, 100 complete control); for Plant response rating, Panicum, Fall: scale 0 to 100, 0 no effect, 100 complete control
Excerpt: as §1, §2

sandbur = assay: Test E preemergence; format: in vivo, Cenchrus echinatus; conditions: for Sandbur plant response rating: scale 0 to 100 (0 no effect, 100 complete control); for Plant response rating, Sandbur: scale 0 to 100, 0 no effect, 100 complete control
Excerpt: as §1, §2

green foxtail = assay: Test E preemergence; format: in vivo, Setaria viridis; conditions: for Foxtail, Green plant response rating: scale 0 to 100 (0 no effect, 100 complete control); for Plant response rating, Foxtail, Green: scale 0 to 100, 0 no effect, 100 complete control
Excerpt: as §1, §2

wild poinsettia = assay: Test E preemergence; format: in vivo, Euphorbia heterophylla; conditions: for Poinsettia, Wild plant response rating: scale 0 to 100 (0 no effect, 100 complete control); for Plant response rating, Poinsettia, Wild: scale 0 to 100, 0 no effect, 100 complete control
Excerpt: as §1, §2

yellow nutsedge = assay: Test E preemergence; format: in vivo, Cyperus esculentus; conditions: for Nutsedge, Yellow plant response rating: scale 0 to 100 (0 no effect, 100 complete control); for Plant response rating, Nutsedge, Yellow: scale 0 to 100, 0 no effect, 100 complete control
Excerpt: as §1, §2

soybean = assay: Test E preemergence; format: in vivo, Glycine max; conditions: for Soybean plant response rating: scale 0 to 100 (0 no effect, 100 complete control); for Plant response rating, Soybean: scale 0 to 100, 0 no effect, 100 complete control
Excerpt: as §1, §2

dayflower = assay: Test E preemergence; format: in vivo, Commelina virginica; conditions: for Dayflower, VA plant response rating: scale 0 to 100 (0 no effect, 100 complete control); for Plant response rating, Dayflower, VA: scale 0 to 100, 0 no effect, 100 complete control
Excerpt: as §1, §2

ragweed [2] = assay: Test A preemergence; format: in vivo, Ambrosia elatior
Outline: (§3)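 Pre- and postemergence greenhouse screen. Soil: loam + sand. Spray carrier: solvent mixture, non-phytotoxic, with surfactant. Post timing at 1–2 leaves, height 2–10 cm. Readout: visual injury on a 0–100 scale roughly 10 days after application, untreated plants as reference.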

Italian ryegrass [3] = assay: Test A postemergence; format: in vivo, Lolium multiflorum; conditions: 0 to 100 scale, 0 no effect, 100 complete control
Outline: as §3

rice = assay: Test C flooded paddy test; format: in vivo, Oryza sativa; conditions: Flood, scale 0 to 100 (0 no effect, 100 complete control), 13 to 15 days
Outline: (§4)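 In-water treatment: compound dosed into 3 cm flood over soil, water level unchanged throughout. Controls run alongside; visual assessment at day 13–15.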

Italian ryegrass [4] = assay: Test A preemergence; format: in vivo, Lolium multiflorum
Outline: as §3

blackgrass = assay: Test A postemergence; format: in vivo, Alopecurus myosuroides; conditions: 0 to 100 scale, 0 no effect, 100 complete control
Outline: as §3

ducksalad = assay: Test C flooded paddy test; format: in vivo, Heteranthera limosa; conditions: Flood, scale 0 to 100 (0 no effect, 100 complete control), 13 to 15 days
Outline: as §4

[5] = 31 g ai/ha, 0 to 100 scale where 0 is no effect and 100 is complete control, visual, approximately 10 days

FC(F)(F)c1cnn(-c2ccccc2Oc2ncc(Cl)cn2)c1 [Compound 16]
Ragweed plant response rating (ragweed [1]; 16 g ai/ha): 0 | Ragweed plant response rating (ragweed [1]; 31 g ai/ha): 0 | Ragweed plant response rating (ragweed [1]; 62 g ai/ha): 0 | Plant response rating, Ragweed (ragweed [1]; 125 g ai/ha): 30 | Plant response rating, Ragweed (ragweed [1]; 250 g ai/ha): 65 | Panicum, Fall plant response rating (fall panicum; 16 g ai/ha): 0 | Panicum, Fall plant response rating (fall panicum; 31 g ai/ha): 80 | Panicum, Fall plant response rating (fall panicum; 62 g ai/ha): 100 | Plant response rating, Panicum, Fall (fall panicum; 125 g ai/ha): 100 | Plant response rating, Panicum, Fall (fall panicum; 250 g ai/ha): 100 | Sandbur plant response rating (sandbur; 16 g ai/ha): 0 | Sandbur plant response rating (sandbur; 31 g ai/ha): 20 | Sandbur plant response rating (sandbur; 62 g ai/ha): 20 | Plant response rating, Sandbur (sandbur; 125 g ai/ha): 70 | Plant response rating, Sandbur (sandbur; 250 g ai/ha): 95 | Foxtail, Green plant response rating (green foxtail; 16 g ai/ha): 0 | Foxtail, Green plant response rating (green foxtail; 31 g ai/ha): 20 | Foxtail, Green plant response rating (green foxtail; 62 g ai/ha): 70 | Plant response rating, Foxtail, Green (green foxtail; 125 g ai/ha): 90 | Plant response rating, Foxtail, Green (green foxtail; 250 g ai/ha): 100 | Poinsettia, Wild plant response rating (wild poinsettia; 16 g ai/ha): 0 | Poinsettia, Wild plant response rating (wild poinsettia; 31 g ai/ha): 0 | Poinsettia, Wild plant response rating (wild poinsettia; 62 g ai/ha): 50 | Plant response rating, Poinsettia, Wild (wild poinsettia; 125 g ai/ha): 50 | Plant response rating, Poinsettia, Wild (wild poinsettia; 250 g ai/ha): 100 | Nutsedge, Yellow plant response rating (yellow nutsedge; 16 g ai/ha): 0 | Nutsedge, Yellow plant response rating (yellow nutsedge; 31 g ai/ha): 0 | Nutsedge, Yellow plant response rating (yellow nutsedge; 62 g ai/ha): 0 | Plant response rating, Nutsedge, Yellow (yellow nutsedge; 125 g ai/ha): 35 | Plant response rating, Nutsedge, Yellow (yellow nutsedge; 250 g ai/ha): 35 | Soybean plant response rating (soybean; 16 g ai/ha): 0 | Soybean plant response rating (soybean; 31 g ai/ha): 60 | Soybean plant response rating (soybean; 62 g ai/ha): 60 | Plant response rating, Soybean (soybean; 125 g ai/ha): 90 | Plant response rating, Soybean (soybean; 250 g ai/ha): 95 | Dayflower, VA plant response rating (dayflower; 16 g ai/ha): 0 | Dayflower, VA plant response rating (dayflower; 31 g ai/ha): 0 | Dayflower, VA plant response rating (dayflower; 62 g ai/ha): 35 | Plant response rating, Dayflower, VA (dayflower; 125 g ai/ha): 70 | Plant response rating, Dayflower, VA (dayflower; 250 g ai/ha): 98

Fc1cccc(Oc2ncc(Cl)cn2)c1-n1cc(OCC(F)(F)F)cn1 [Compound 270]
Plant response rating, Ragweed (ragweed [2]; [5]): 0 | Ragweed plant response rating (0 to 100 scale) (ragweed [2]; 125 g ai/ha): 20 | Plant response rating, Ryegrass, Italian (Italian ryegrass [3]; 31 g ai/ha): 0 | Plant response rating, Ryegrass, Italian (Italian ryegrass [3]; 125 g ai/ha): 30 | Plant response rating, Rice (rice; 31 g ai/ha): 0 | Plant response rating, Rice (rice; 62 g ai/ha): 0 | Plant response rating, Rice (rice; 125 g ai/ha): 0 | Plant response rating, Rice (rice; 250 g ai/ha): 30 | Plant response rating, Ryegrass, Italian (Italian ryegrass [4]; [5]): 0 | Ryegrass, Italian plant response rating (0 to 100 scale) (Italian ryegrass [4]; 125 g ai/ha): 10 | Plant response rating, Blackgrass (blackgrass; 31 g ai/ha): 10 | Plant response rating, Blackgrass (blackgrass; 125 g ai/ha): 40 | Plant response rating, Ducksalad (ducksalad; 31 g ai/ha): 20 | Plant response rating, Ducksalad (ducksalad; 62 g ai/ha): 60 | Plant response rating, Ducksalad (ducksalad; 125 g ai/ha): 80 | Plant response rating, Ducksalad (ducksalad; 250 g ai/ha): 95
